For one test, the target named is T1, Human LBAT (Homo sapiens, UniProt Q14973).
T1 construct: expressed in transfected cells; kept under Geneticin selection
T1 sequence (Q14973 1-349): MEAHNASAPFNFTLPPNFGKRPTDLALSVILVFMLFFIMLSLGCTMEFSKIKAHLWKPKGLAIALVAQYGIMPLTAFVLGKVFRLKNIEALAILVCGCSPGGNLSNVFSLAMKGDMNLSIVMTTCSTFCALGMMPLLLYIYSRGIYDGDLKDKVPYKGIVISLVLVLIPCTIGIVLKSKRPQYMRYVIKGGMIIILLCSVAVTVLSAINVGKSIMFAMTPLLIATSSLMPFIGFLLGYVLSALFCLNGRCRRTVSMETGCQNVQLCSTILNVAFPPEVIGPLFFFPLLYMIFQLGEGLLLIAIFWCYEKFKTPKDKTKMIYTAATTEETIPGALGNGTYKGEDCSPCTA
Description: LBAT (h/m) assay: 3H-taurocholic acid uptake in human LBAT-overexpressing cells. In kind it is cell-based. To be noted: 0.3 μM 3H-taurocholic acid and 7.5 μM cold taurocholic acid, 20 minutes, read-out: hLBAT IC50. As for the experimental part: LBAT (h/m) Assay Protocol
20,000 cells (Human or Mouse LBAT-overexpressing cells) were seeded in 96-wells plate (Corning CLS3809) in 100 μL MEM-alpha medium (Gibco 12571-063) supplemented with 10% FBS (Gibco 10438026) containing Geneticin (Gibco 10131-027) (1 mg/mL) and incubated at 37° C. in 5% CO2 for 24 hours. After incubation, media was decanted from the wells and cells were washed two times with 300 μL of basal MEM-alpha medium (FBS-free). After decanting basal MEM-alpha medium each time, plates were tapped against paper towel to ensure maximum removal of residual media. For human LBAT, incubation mix was prepared by adding test inhibitor dilutions (3-fold serial dilution in DMSO (Sigma D2650), 10 points) in MEM-alpha (without FBS) containing 0.3 μM 3H-taurocholic acid (ARC ART-1368) and 7.5 μM cold taurocholic acid (Sigma T4009) (maintaining 0.2% final DMSO concentration). For mouse LBAT, incubation mix was prepared by adding test inhibitor dilutions (3-fold serial dilution in DMSO, 10 points) in MEM-alpha (without FBS) containing 0.3 μM 3H-taurocholic acid and 25 μM cold taurocholic acid maintaining 0.2% final DMSO concentration).
50 μL of incubation mix containing test inhibitors was then added to the wells (in duplicate) and the plates were incubated for 20 minutes in a CO2 incubator at 37° C. After incubation, the reaction was stopped by keeping the plates on ice water mix for 2-3 minutes and then the incubation mix was aspirated completely from the wells. The wells were washed two times with 250 μL of chilled unlabelled 1 mM taurocholic acid dissolved in HEPES (Gibco 15630080)-buffered (10 mM) HBSS (Gibco 14175079) (pH 7.4). The plates were tapped against a paper towel after every wash to ensure maximum removal of blocking buffer.
(§1) 100 μL of MicroScint-20 (PerkinElmer 6013621) was added to the wells and kept overnight at room temperature before reading the plates in TopCount NXT™ Microplate Scintillation and Luminescence Counter from PerkinElmer under 3H Test protocol (set at 120 seconds reading time per well, with normal plate orientation).
(§2) Preparation of Test Compound Dilutions
(§3) All test compounds were provided in powder form at room temperature. 10 mM DMSO stocks of the test compounds were prepared, aliquoted and stored at −20° C. From the 10 mM DMSO stock of the compounds, a 3-fold serial dilution in DMSO was prepared to get a total of 10 dilutions of the test compounds. 0.5 μL of this dilution in DMSO was added to 250 μL of FBS-free basal media containing 3H-taurocholic acid and cold taurocholic acid to prepare the incubation mixture.

Another test concerns HepaRG cells. Put plainly: HepaRG-based assay: 3H-taurocholic acid uptake in differentiated HepaRG cells. The class given is cell-based. The following applies: Homo sapiens, HepaRG, 0.3 μM 3H-taurocholic acid and 7.5 μM cold taurocholic acid, 30 minutes. As for the experimental part: HepaRG-Based Assay Protocol
A cryopreserved vial of differentiated HepaRG cells (Biopredic International HPR116080) was thawed in HepaRG Thawing/Plating/General Purpose Medium (Biopredic International ADD670C) supplemented with 200 mM Glutamax (Gibco 35050061) following the protocol provided by Biopredic International. 70,000 cells per well were seeded in 96-wells plate (Corning CLS3809) in 100 μL of HepaRG Thawing/Plating/General Purpose Medium supplemented with 200 mM Glutamax and incubated at 37° C. in 5% CO2 for 24 hours. Post incubation, the seeding media was replaced by HepaRG Maintenance/Metabolism Medium (Biopredic International ADD620C) and incubated for 6 days, with fresh HepaRG Maintenance/Metabolism Medium replenishment every 48 hours. After 7 days incubation post seeding, incubation media was decanted from the wells and cells were washed two times with 250 μL of William's E Basal Media (Gibco 12551032). After decanting William's E Basal Media each time, plates were tapped against paper towel to ensure maximum removal of residual media.
Incubation mix was prepared by adding test inhibitor dilutions (3-fold serial dilution in DMSO (Sigma D2650)) in William's E media (basal) containing 0.3 μM 3H-taurocholic acid (ARC ART-1368) and 7.5 μM cold taurocholic acid (Sigma T4009) (maintaining 0.2% final DMSO concentration). 50 μl of incubation mix containing test inhibitors was then added to the wells (in duplicate) and the plates were incubated for 30 minutes in 5% CO2 incubator at 37° C. After incubation, the reaction was stopped by keeping the plates on ice water mix for 2-3 minutes and then the incubation mix was aspirated completely from the wells. The wells were washed two times with 250 μL of chilled unlabelled 1 mM taurocholic acid dissolved in HEPES (Gibco 15630080)-buffered (10 mM) HBSS (Gibco 14175079) (pH 7.4). The plates were tapped against a paper towel after every wash to ensure maximum removal of blocking buffer.
as §1, §2, §3

Broadly, the IC50 is the midpoint of a concentration-inhibition curve.

As to `CCCC[C@]1(CC)CN(c2ccccc2)c2cc(SC)c(O/C=C/C(=O)O)cc2S(=O)(=O)N1C` (single isomer, unassigned) [Example 90], the figures for the IC50 at Human LBAT and in the test on HepaRG cells were 49 nM and 1400 nM, respectively.
For `CCCCC1(CCCC)CN(c2ccc(NCc3ccccc3)cc2)c2cc(SC)c(O/C=C/C(=O)O)cc2S(=O)(=O)C1` [Example 22, (E)-3-((5-(4-(benzylamino)phenyl)-3,3-dibutyl-7-(methylthio)-1,1-dioxido-2,3,4,5-tetrahydro-1,5-benzothiazepin-8-yl)oxy)acrylic Acid], the figures for the half-inhibitory concentration (IC50) at Human LBAT and in the test with HepaRG cells were 343 nM and 2140 nM, respectively.
Take `CCCCC1(CC)CN(c2ccc(NC(=O)OC(C)(C)C)cc2)c2cc(Br)c(O/C=C/C(=O)O)cc2S(=O)(=O)C1` (stereo not drawn) [Example 23, (E)-3-((7-bromo-5-(4-((tert-butoxycarbonyl)amino)phenyl)-3-butyl-3-ethyl-1,1-dioxido-2,3,4,5-tetrahydro-1,5-benzothiazepin-8-yl)oxy)acrylic Acid]: the IC50 at Human LBAT came out at 100 nM; in the test with HepaRG cells it was 1200 nM.
`CCCCOC(=O)Nc1ccc(N2CC(CCCC)(CCCC)CS(=O)(=O)c3cc(O/C=C/C(=O)O)c(SC)cc32)cc1` [Example 29, (E)-3-((5-(4-((butoxycarbonyl)amino)phenyl)-3,3-dibutyl-7-(methylthio)-1,1-dioxido-2,3,4,5-tetrahydro-1,5-benzothiazepin-8-yl)oxy)acrylic Acid]: the results for the IC50 at Human LBAT and in the test on HepaRG cells were 205 nM and 666 nM, respectively.
On to `CCCCC1(CCCC)CN(c2ccc(NC(=O)CC(C)(C)C)cc2)c2cc(SC)c(O/C=C/C(=O)O)cc2S(=O)(=O)C1` [Example 30, (E)-3-((3,3-dibutyl-5-(4-(3,3-dimethylbutanamido)phenyl)-7-(methylthio)-1,1-dioxido-2,3,4,5-tetrahydro-1,5-benzothiazepin-8-yl)oxy)acrylic Acid], for which the 50% inhibitory concentration (IC50) at Human LBAT came to 107 nM; with HepaRG cells it was 336 nM.
For `CCCCC1(CCCC)CN(c2ccc(NC(=O)C(C)C)cc2)c2cc(SC)c(O/C=C(\F)C(=O)O)cc2S(=O)(=O)C1` [Example 31, (Z)-3-((3,3-dibutyl-5-(4-isobutyramidophenyl)-7-(methylthio)-1,1-dioxido-2,3,4,5-tetrahydro-1,5-benzothiazepin-8-yl)oxy)-2-fluoroacrylic Acid], the values for the 50% inhibitory concentration (IC50) at Human LBAT and in the test with HepaRG cells were 17 nM and 310 nM, respectively.
`CCCCC1(CCCC)CN(c2ccc(NC(=O)C(C)C)cc2)c2cc(SC)c(O/C=C/C(=O)O)cc2S(=O)(=O)C1` [Example 33, (E)-3-((3,3-dibutyl-5-(4-isobutyramidophenyl)-7-(methylthio)-1,1-dioxido-2,3,4,5-tetrahydro-1,5-benzothiazepin-8-yl)oxy)acrylic Acid]: the 50% inhibitory concentration (IC50) at Human LBAT was determined as 214 nM; in the test on HepaRG cells it was 691 nM.
Turning to `CCCCC1(CC)CN(c2ccc(NC(=O)C(C)(C)C)cc2)c2cc(SC)c(O/C=C/C(=O)O)cc2S(=O)(=O)C1` (stereo not drawn) [Example 34, (E)-3-((3-butyl-3-ethyl-7-(methylthio)-1,1-dioxido-5-(4-pivalamidophenyl)-2,3,4,5-tetrahydro-1,5-benzothiazepin-8-yl)oxy)acrylic Acid], the half-maximal inhibitory concentration (IC50) on Human LBAT turned out to be 76 nM; with HepaRG cells it was 469 nM.
Take `CCCCC1(CCCC)CN(c2ccc(NC(=O)C3CCCC3)cc2)c2cc(SC)c(O/C=C(\F)C(=O)O)cc2S(=O)(=O)C1` [Example 35, (Z)-3-((3,3-dibutyl-5-(4-(cyclopentanecarboxamido)phenyl)-7-(methylthio)-1,1-dioxido-2,3,4,5-tetrahydro-1,5-benzothiazepin-8-yl)oxy)-2-fluoroacrylic Acid]: the IC50 came out at 66 nM on Human LBAT and 590 nM in the test on HepaRG cells.
Consider `CCCCC1(CCCC)CN(c2ccc(NC(=O)C3CC3)cc2)c2cc(SC)c(O/C=C(\F)C(=O)O)cc2S(=O)(=O)C1` [Example 36, (Z)-3-((3,3-dibutyl-5-(4-(cyclopropanecarboxamido)phenyl)-7-(methylthio)-1,1-dioxido-2,3,4,5-tetrahydro-1,5-benzothiazepin-8-yl)oxy)-2-fluoroacrylic Acid], for which the IC50 came out at 39 nM on Human LBAT and 877 nM in the test with HepaRG cells.
Turning to `CCCCC1(CC)CN(c2ccc(NC(=O)C3CCCC3)cc2)c2cc(SC)c(O/C=C/C(=O)O)cc2S(=O)(=O)C1` (stereo not drawn) [Example 38, (E)-3-((3-butyl-5-(4-(cyclopentanecarboxamido)phenyl)-3-ethyl-7-(methylthio)-1,1-dioxido-2,3,4,5-tetrahydro-1,5-benzothiazepin-8-yl)oxy)acrylic Acid], the IC50 on Human LBAT was found to be 122 nM; in the test with HepaRG cells it was 454 nM.
As to `CCC1(CC)CN(c2ccc(NC(=O)C(C)(C)C)cc2)c2cc(SC)c(O/C=C(\F)C(=O)O)cc2S(=O)(=O)C1` [Example 52, (Z)-3-((3,3-diethyl-7-(methylthio)-1,1-dioxido-5-(4-pivalamidophenyl)-2,3,4,5-tetrahydro-1,5-benzothiazepin-8-yl)oxy)-2-fluoroacrylic Acid], the IC50 at Human LBAT is 84 nM; in the test on HepaRG cells, 191 nM.
